This is an account of results in US7309710B2, “Crystals” (Astellas Pharma Inc., priority 2002, dated 2007).

Data set [1] can be described thus: Stability test of the crystals (assay value by HPLC, internal standard method). The settings on record: for Stability test: assay value by HPLC (internal standard method, peak area): 40° C. under light-resistant; for Stability of the crystal: at 5 to 60° C. for at least three months. In kind it is physicochemical. Here is the method:
Because both the α type and β type crystals are stable at 5 to 60° C. for at least three months and can be highly purified by recrystallization, these crystals may be used as raw materials for producing pharmaceutical products. Particularly, these crystals are preferable as raw materials for producing solid pharmaceutical preparations.
(The values express the assay values determined by an internal standard method on the basis of peak area obtained by HPLC)

Data set [2] concerns IL-2 production. As to the kind of experiment: Activity of suppressing IL-2 production. In kind it is cell-based. The source says: (§1) 4,6-Diemthyl-4′-[3,5-bis(trifluoromethyl)-1H-pyrazol-1-yl]nicotinanilide is excellent in terms of the CRACC inhibitory activity, the inhibition selectivity over VOCC, and the activity of suppressing IL-2 production. […] Therefore, a pharmaceutical product containing the compound is useful as an agent for preventing or treating allergic, inflammatory or autoimmune diseases in which CRACC and IL-2 participates. Herein, the allergic, inflammatory or autoimmune diseases include, for example, bronchial asthma, psoriasis, atopic diseases including atopic dermatitis, inflammatory bowel diseases including Crohn disease, digestive ulcer, nephritis, hepatitis, pancreatitis, collagenosis, rheumatoid arthritis, osteoarthritis, and rejection on transplantation. The usefulness on these diseases can be confirmed at the in vitro tests of the CRACC inhibitory activity and the activity of suppressing IL-2 production as described in the patent reference 1 and at various tests using, for example, antigen-induced airway eosinophilia model as a typical disease model of bronchial asthma, and murine collagen-induced arthritis model. 4,6-Dimethyl-4′-[3,5-bis (trifluoromethyl)-1H-pyrazol-1-yl]nicotinanilide may be produced by the method described in the patent reference 1.

For data set [3], the system named is Ca2+ release-activated Ca2+ channel (CRACC). Briefly: CRACC inhibitory activity (in vitro test as described in patent reference 1). It counts as cell-based.
From the text: as §1

The test system of data set [4] is voltage-operated Ca2+ channel (VOCC). Briefly: Inhibition selectivity for CRACC over VOCC. In kind it is cell-based. An excerpt:
A pyrazole derivative having a high inhibition selectivity for CRACC over voltage-operated Ca^2+ channel (abbreviated as VOCC hereinafter) involved in intracellular calcium regulation of excitatory cells such as smooth muscle cells and nerve cells and having an inhibitory activity against IL-2 production has been reported (for example, patent reference 1).
4,6-Diemthyl-4′-[3,5-bis(trifluoromethyl)-1H-pyrazol-1-yl]nicotinanilide is excellent in terms of the CRACC inhibitory activity, the inhibition selectivity over VOCC, and the activity of suppressing IL-2 production. […] Therefore, a pharmaceutical product containing the compound is useful as an agent for preventing or treating allergic, inflammatory or autoimmune diseases in which CRACC and IL-2 participates. Herein, the allergic, inflammatory or autoimmune diseases include, for example, bronchial asthma, psoriasis, atopic diseases including atopic dermatitis, inflammatory bowel diseases including Crohn disease, digestive ulcer, nephritis, hepatitis, pancreatitis, collagenosis, rheumatoid arthritis, osteoarthritis, and rejection on transplantation. […]

The test system of data set [5] is antigen-induced airway eosinophilia. Briefly: Antigen-induced airway eosinophilia (rat). The settings on record: test described in patent reference 1. It counts as in vivo.
From the text: as §1

Data set [6] has as its system TNCB-induced Contact Hypersensitivity. Briefly: Suppression of TNCB-induced Contact Hypersensitivity. It counts as in vivo. Particulars: test described in patent reference 1.
From the text: as §1

In data set [7] the test system is collagen-induced arthritis. As to the kind of experiment: Murine collagen-induced arthritis model. It counts as in vivo. The settings on record: test described in patent reference 1.
From the text: as §1

Regarding `Cc1cc(C)c(C(=O)Nc2ccc(-n3nc(C(F)(F)F)cc3C(F)(F)F)cc2)cn1` [β type crystal, 4,6-dimethyl-4′-[3,5-bis(trifluoromethyl)-1H-pyrazol-1-yl]nicotinanilide], the entries for the “Stability test: assay value by HPLC (internal standard method, peak area)” value in data set [1] (After 1 month) and in data set [1] (After 3 months) were 99.7% and 100.7%, respectively. Also, the “Stability of the crystal” value in data set [1] is on record as “stable”.
Consider `Cc1cc(C)c(C(=O)Nc2ccc(-n3nc(C(F)(F)F)cc3C(F)(F)F)cc2)cn1` [α type crystal, 4,6-dimethyl-4′-[3,5-bis(trifluoromethyl)-1H-pyrazol-1-yl]nicotinanilide], for which the “Stability test: assay value by HPLC (internal standard method, peak area)” value in data set [1] (After 1 month) is given as 100.7%; in data set [1] (After 3 months) it was 99.2%. Besides, in data set [1], the “Stability of the crystal” value was “stable”.
For the compound `Cc1cc(C)c(C(=O)Nc2ccc(-n3nc(C(F)(F)F)cc3C(F)(F)F)cc2)cn1` [4,6-dimethyl-4′-[3,5-bis(trifluoromethyl)-1H-pyrazol-1-yl]nicotinanilide], the “activity of suppressing IL-2 production” value in data set [2] is on record as “excellent”. Further, the CRACC inhibitory activity result in data set [3] is “excellent”. The “inhibition selectivity over VOCC” value in data set [4] is recorded as “excellent”. Moreover, in data set [5], the “activity of suppressing of antigen-induced airway eosinophilia” value was “very good activities”. The “effect on the suppression of TNCB-induced Contact Hypersensitivity” value in data set [6] is reported as “very good activities”. Besides, the “activity of suppressing the arthritis in murine collagen-induced arthritis model” value in data set [7] is reported as “very good activities”.
